Laboratory results: patent US4658029A, “1-Hpyrazolo[3,4-b]pyridines” (Hoechst-Roussel Pharmaceuticals Inc., priority 1986, dated 1987)

Tests used:
[1] = test system: 2-phenyl-1,4-benzoquinone-induced writhing; test: 2-phenyl-1,4-benzoquinone-induced writhing test in mice (analgesic activity, PQW); assay type: in vivo; conditions: for Analgesic PQW, % decrease (phenylquinone writhing): 20 mg/kg, SC
[2] = test system: spontaneous hypertensive rat; test: Antihypertensive activity in the spontaneous hypertensive rat (SHR), indirect tail cuff method; assay type: in vivo; conditions: 50 mg/kg, PO, treated orally for three days, drop measured on third day
Method: The 6H-isoxazolo[5,4-d]pyrazolo[…] of formula I of the present invention are useful as antihypertensive agents due to their ability to depress blood pressure in mammals. Antihypertensive activity is measured in the spontaneous hypertensive rat by the indirect tail cuff method described in "Methods in Pharmacology", A. Schwartz, Ed., Vol. I, Appleton-Century Crofts, New York, N.Y., 1971, p. 135. In this procedure a group of five animals are treated orally for three days with the test compound in relation to a control group of the same number. The drop in blood pressure is measured on the third day following administration. The antihypertensive activities of some of the compounds, expressed as a decrease in mean arterial blood pressure (in mmHg), are given in Table I.

| Compound | Analgesic PQW, % decrease (phenylquinone writhing) [1] [%] | Antihypertensive SHR (decrease in mean arterial blood pressure) [2] [mmHg] | also measured |
| --- | --- | --- | --- |
| 6-Ethyl-3-tolyl-6H-isoxazolo[5,4-d]pyrazolo[3,4-b]pyridine | 48 | – | – |
| CCn1ncc2c3onc(-c4ccc(Cl)cc4)c3cnc21 [3-(4-Chlorophenyl)-6-ethyl-6H-isoxazolo[5,4-d]pyrazolo[3,4-b]pyridine] | – | 62 | – |
| CCn1ncc2c3onc(-c4ccccn4)c3cnc21 [6-Ethyl-3-(2-pyridyl)-6H-isoxazolo[5,4-d]pyrazolo[3,4-b]pyridine] | 42 | – | – |
| CCn1ncc2c3onc(-c4cccc(F)c4)c3cnc21 [6-Ethyl-3-(3-fluorophenyl)-6H-isoxazolo[5,4-d]pyrazolo[3,4-b]pyridine] | 55 | – | – |
| CCn1ncc2c3onc(-c4cccc(O)c4)c3cnc21 [6-Ethyl-3-(3-hydroxyphenyl)-6H-isoxazolo[5,4-d]pyrazolo[3,4-b]pyridine] | 48 | – | – |
| CCn1ncc2c3onc(-c4cccc(C)c4)c3cnc21 [6-Ethyl-3-(3-tolyl)-6H-isoxazolo[5,4-d]pyrazolo[3,4-b]pyridine] | – | 33 | – |
| CCn1ncc2c3onc(-c4ccc(F)cc4)c3cnc21 [6-Ethyl-3-(4-fluorophenyl)-6H-isoxazolo[5,4-d]pyrazolo[3,4-b]pyridine] | 31 | – | – |
| CCn1ncc2c3onc(-c4ccc(OC)cc4)c3cnc21 [6-Ethyl-3-(4-methoxyphenyl)-6H-isoxazolo[5,4-d]pyrazolo[3,4-b]pyridine] | – | 31 | – |
| CCC(=O)O[C@](Cc1ccccc1)(c1ccccc1)[C@H](C)CN(C)C [Propoxyphene, reference compound] | – | – | ED50 ([1]; Mus musculus, sc, prior art compound, read-out: ED50 (phenylquinone writhing)): 3.9 mg/kg |
| C[C@](N)(Cc1ccc(O)c(O)c1)C(=O)O [alpha-Methyldopa, reference compound] | – | 40 | – |
